A value given as a limit tells only on which side of the number the result lay.

We go through 27 compounds from patent US20030199692A1, “Propanoic acid derivatives that inhibit the binding of integrins to their receptors” (priority 1999, published 2003).

This experiment deals with T1, α4β1 integrin (Homo sapiens, UniProt P05556+P13612).
T1 construct: endogenous in cells; host or cells: Ramos cells
As to the kind of experiment: Inhibition of adhesion of calcein AM-labeled Ramos cells to CS1 (fibronectin) peptide-conjugated ovalbumin. The class given is cell-based. To be noted: for IC50: Ramos cell adhesion to CS1-conjugated ovalbumin, 30 minutes at 37° C.; for inhibition at 100 µM: Ramos, compound at a concentration of 100 μM, read-out: % A (percent inhibition of cell adhesion). As to the method: The ability of compounds of the present invention to inhibit binding is determined by a procedure in which a 26-amino acid peptide containing the CS1 sequence of fibronectin with an N-terminal Cys ([…]) was coupled to maleimide activated ovalbumin. Bovine serum albumin (BSA) and CS1 conjugated ovalbumin were coated onto 96-well polystyrene plates at 0.5 mg/ml in TBS (50 mM Tris, pH 7.5; 150 mM NaCl) at 4° C. for 16 hours. The plates were washed three times with TBS and blocked with TBS containing 3% BSA at room temperature for 4 hours. Blocked plates were washed three times in binding buffer (TBS; 1 mM MgCl2; 1 mM CaCl2; 1 mM MnCl2) prior to assay. Ramos cells fluorescently labeled with calcein AM were resuspended in binding buffer (10^7 cells/ml) and diluted 1:2 with same buffer with or without compound. The cells were added immediately to the wells (2.5×10^5 cells/well) and incubated for 30 minutes at 37° C. Following three washes with binding buffer, adherent cells were lysed and quantitated using a fluorometer. IC50 is defined as the dose required to give 50% inhibition. MS in Table 3 stands for Mass Spec. nd stands for not determined in the Tables. A stands for inhibition in Table 2, and the percent inhibition indicates the inhibition of cell adhesion when compound is included in the assay at a concentration of 100 μM. The lower the IC50 value and the greater the percentage of inhibition, the more efficient the compound is at prevention of cell adhesion.

T1 sequence (P13612 34-1032): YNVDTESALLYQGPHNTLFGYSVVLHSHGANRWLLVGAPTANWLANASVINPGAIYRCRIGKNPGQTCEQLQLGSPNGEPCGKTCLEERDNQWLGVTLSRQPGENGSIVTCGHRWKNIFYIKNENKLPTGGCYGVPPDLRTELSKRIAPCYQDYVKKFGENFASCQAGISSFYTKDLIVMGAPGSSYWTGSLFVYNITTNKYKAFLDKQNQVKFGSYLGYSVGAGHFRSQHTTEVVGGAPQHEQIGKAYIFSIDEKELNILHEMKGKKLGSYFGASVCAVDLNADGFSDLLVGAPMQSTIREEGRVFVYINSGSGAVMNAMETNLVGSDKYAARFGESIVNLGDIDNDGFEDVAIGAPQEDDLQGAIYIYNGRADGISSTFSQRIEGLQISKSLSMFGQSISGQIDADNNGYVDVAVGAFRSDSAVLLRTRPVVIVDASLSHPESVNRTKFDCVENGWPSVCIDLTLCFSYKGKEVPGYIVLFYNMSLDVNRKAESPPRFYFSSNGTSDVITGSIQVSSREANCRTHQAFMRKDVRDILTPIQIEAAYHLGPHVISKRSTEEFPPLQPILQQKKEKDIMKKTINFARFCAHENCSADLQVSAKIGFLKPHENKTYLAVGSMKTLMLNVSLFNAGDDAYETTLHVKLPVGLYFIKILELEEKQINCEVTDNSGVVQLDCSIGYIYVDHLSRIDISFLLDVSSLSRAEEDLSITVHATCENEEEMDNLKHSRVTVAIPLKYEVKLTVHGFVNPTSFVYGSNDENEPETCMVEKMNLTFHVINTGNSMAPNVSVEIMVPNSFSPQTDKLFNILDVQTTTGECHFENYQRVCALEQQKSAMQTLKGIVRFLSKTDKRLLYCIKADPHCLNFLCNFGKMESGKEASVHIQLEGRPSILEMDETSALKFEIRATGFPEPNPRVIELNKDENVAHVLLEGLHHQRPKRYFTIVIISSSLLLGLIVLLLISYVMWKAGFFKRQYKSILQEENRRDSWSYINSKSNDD
T1 sequence (P05556 21-798): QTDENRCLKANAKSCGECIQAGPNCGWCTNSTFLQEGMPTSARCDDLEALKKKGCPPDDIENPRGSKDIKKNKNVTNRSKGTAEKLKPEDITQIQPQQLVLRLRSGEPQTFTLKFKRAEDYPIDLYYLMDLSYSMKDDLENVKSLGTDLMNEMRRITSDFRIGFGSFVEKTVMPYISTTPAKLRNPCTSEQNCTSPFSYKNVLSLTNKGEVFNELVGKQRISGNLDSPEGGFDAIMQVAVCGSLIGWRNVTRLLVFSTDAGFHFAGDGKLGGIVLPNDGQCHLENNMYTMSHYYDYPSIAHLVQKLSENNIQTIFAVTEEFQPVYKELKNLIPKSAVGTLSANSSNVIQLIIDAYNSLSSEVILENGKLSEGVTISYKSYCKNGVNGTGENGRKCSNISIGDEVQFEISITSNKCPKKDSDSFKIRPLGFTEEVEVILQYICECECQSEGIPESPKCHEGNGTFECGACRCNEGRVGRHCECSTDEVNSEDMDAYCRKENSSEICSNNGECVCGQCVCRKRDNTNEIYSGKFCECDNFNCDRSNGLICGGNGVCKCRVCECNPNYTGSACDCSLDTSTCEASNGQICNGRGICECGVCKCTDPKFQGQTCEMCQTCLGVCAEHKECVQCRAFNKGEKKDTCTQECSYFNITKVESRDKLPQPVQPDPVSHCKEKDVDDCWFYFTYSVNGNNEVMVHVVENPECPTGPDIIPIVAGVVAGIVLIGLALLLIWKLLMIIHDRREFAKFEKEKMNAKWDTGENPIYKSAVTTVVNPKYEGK

`CCCCC(C(=O)N[C@@H](CC(=O)O)c1ccc2c(c1)OCO2)n1cc(Cc2ccccc2)ccc1=O` (stereo partly drawn) [(3S)-3-(1,3-Benzodioxol-5-yl)-3-({2-[2-oxo-5-(phenylmethyl)-1(2H)-pyridinyl]hexanoyl}amino)propanoic acid]: the half-maximal inhibitory concentration (IC50) (Table 3) was 40 nM.
The same measure, in the same setting: the figure for `O=C(O)C[C@H](NC(=O)C1(n2cccc(Cc3ccccc3)c2=O)CCCCC1)c1ccc2c(c1)OCO2` [(3S)-3-(1,3-Benzodioxol-5-yl)-3-[({1-[2-oxo-3-(phenylmethyl)-1(2H)-pyridinyl]cyclohexyl}carbonyl)amino]propanoic acid] is 50000 nM.
Consider `CCCC[C@@H](C(=O)N[C@@H](CC(=O)O)c1ccc2c(c1)OCO2)N1CCCN(Cc2cccs2)C1=O` [(3S)-3-(1,3-benzodioxol-5-yl)-3-(((2S)-2-(2-oxo-3-(2-thienylmethyl)tetrahydro-1(2H)-pyrimidinyl)hexanoyl)amino)propanoic acid], for which, for the setting “Table 2”, the inhibition at 100 µM is 100% and the IC50 was 5 nM.
On the same counts, the results for `CCCC[C@@H](C(=O)N[C@@H](CC(=O)O)c1ccc2c(c1)OCO2)N1CCC(c2cccs2)N(Cc2cccs2)C1=O` (stereo partly drawn) [(3S)-3-(1,3-benzodioxol-5-yl)-3-(((2S)-2-(2-oxo-4-(2-thienyl)-3-(2-thienylmethyl)tetrahydro-1(2H)-pyrimidinyl)hexanoyl)amino)propanoic acid] are 100% and 50 nM.
`O=C(O)C[C@H](NC(=O)Cn1cccc(Cc2ccccc2)c1=O)c1ccc2c(c1)OCO2` [(3S)-3-(1,3-benzodioxol-5-yl)-3-({2-[2-oxo-3-(phenylmethyl)-1(2H)-pyridinyl]acetyl}amino)propanoic acid]: for the setting “Table 3”, the 50% inhibitory concentration (IC50) is 450 nM.
Still for that read-out and setting: next, `CCC(C(=O)N[C@@H](CC(=O)O)c1ccc2c(c1)OCO2)n1cccc(Cc2ccccc2)c1=O` (stereo partly drawn) [(3S)-3-(1,3-benzodioxol-5-yl)-3-({2-[2-oxo-3-(phenylmethyl)-1(2H)-pyridinyl]butanoyl}amino)propanoic acid]: 30 nM; `CCCC(C(=O)N[C@@H](CC(=O)O)c1ccc2c(c1)OCO2)n1cccc(Cc2ccccc2)c1=O` (stereo partly drawn) [(3S)-3-(1,3-benzodioxol-5-yl)-3-({2-[2-oxo-3-(phenylmethyl)-1(2H)-pyridinyl]pentanoyl}amino)propanoic acid]: 60 nM.
`CCCCC(C(=O)N[C@@H](CC(=O)O)c1ccc2c(c1)OCO2)n1c(=O)c(Cc2ccccc2)cc2ccccc21` (stereo partly drawn) [(3S)-3-(1,3-benzodioxol-5-yl)-3-({2-[2-oxo-3-(phenylmethyl)-1(2H)-quinolinyl]hexanoyl}amino)propanoic acid]: the half-maximal inhibitory concentration (IC50) (Table 3) was 2000 nM.
On the same count and under the same terms, next, `O=C(O)C[C@H](NC(=O)Cn1c(=O)n(Cc2ccccc2)c2ccccc21)c1ccc2c(c1)OCO2` [(3S)-3-(1,3-benzodioxol-5-yl)-3-({2-[2-oxo-3-(phenylmethyl)-2,3-dihydro-1H-benzimidazol-1-yl]acetyl}amino)propanoic acid]: 200 nM.
On the same count and under the same terms, the figure for `CCCCC(C(=O)N[C@@H](CC(=O)O)c1ccc2c(c1)OCO2)n1c(=O)n(Cc2ccccc2)c2ccccc21` (stereo partly drawn) [(3S)-3-(1,3-benzodioxol-5-yl)-3-({2-[2-oxo-3-(phenylmethyl)-2,3-dihydro-1H-benzimidazol-1-yl]hexanoyl}amino)propanoic acid] is 70 nM.
Take `CCCCC(C(=O)N[C@@H](CC(=O)O)c1ccc2c(c1)OCO2)n1ccn(Cc2ccccc2)c1=O` (stereo partly drawn) [(3S)-3-(1,3-benzodioxol-5-yl)-3-({2-[2-oxo-3-(phenylmethyl)-2,3-dihydro-1H-imidazol-1-yl]hexanoyl}amino)propanoic acid]: the IC50 (Table 3) is 60 nM.
The same measure, in the same setting: the figure for `CCCCC(C(=O)N[C@@H](CC(=O)O)c1ccc2c(c1)OCO2)N1C(=O)N(Cc2ccccc2)Cc2ccccc21` (stereo partly drawn) [(3S)-3-(1,3-benzodioxol-5-yl)-3-({2-[2-oxo-3-(phenylmethyl)-3,4-dihydro-1(2H)-quinazolinyl]hexanoyl}amino)propanoic acid] is 400 nM; for `CCCCC(C(=O)N[C@@H](CC(=O)O)c1ccc2c(c1)OCO2)n1cccc(NCc2cccs2)c1=O` (stereo partly drawn) [(3S)-3-(1,3-benzodioxol-5-yl)-3-({2-[2-oxo-3-[(2-thiophenylmethyl)amino]-1(2H)-pyridinyl]hexanoyl}amino)propanoic acid] it is 1300 nM; for `O=C(O)C[C@H](NC(=O)Cc1cccc(Oc2ccccc2)c1)c1ccc2c(c1)OCO2` [(3S)-3-(1,3-benzodioxol-5-yl)-3-({2-[3-(phenyloxy)phenyl]acetyl}amimo)-propanoic acid] it is above 100000 nM.
The same measure, in the same setting: the figure for `CCCCC(C(=O)N[C@@H](CC(=O)O)c1ccc2c(c1)OCO2)n1cc(C)cc(Cc2ccccc2Cl)c1=O` (stereo partly drawn) [(3S)-3-(1,3-benzodioxol-5-yl)-3-({2-[3-[(2-chlorophenyl)methyl]-5-methyl-2-oxo-1(2H)-pyridinyl]hexanoyl}amino)propanoic acid] is 10 nM; for `CCCCC(C(=O)N[C@@H](CC(=O)O)c1ccc2c(c1)OCO2)n1nc(C)cc(Cc2ccccc2)c1=O` (stereo partly drawn) [(3S)-3-(1,3-benzodioxol-5-yl)-3-({2-[3-methyl-6-oxo-5-(phenylmethyl)-1(6H)-pyridazinyl]hexanoyl}amino)propanoic acid] it is 60 nM; for `CCCC[C@@H](C(=O)N[C@@H](CC(=O)O)c1ccc2c(c1)OCO2)n1c(=O)c2ccccc2n(Cc2ccccc2)c1=O` [(3S)-3-(1,3-benzodioxol-5-yl)-3-({(2S)-2-[2,4-dioxo-1-(phenylmethyl)-1,4-dihydro-3(2H)-quinazolinyl]hexanoyl}amino)propanoic acid] it is 100 nM.
Same read-out and setting: next, `CCCC[C@@H](C(=O)N[C@@H](CC(=O)O)c1ccc2c(c1)OCO2)N1CC(=O)N(Cc2cccs2)c2ccccc2C1=O` [(3S)-3-(1,3-benzodioxol-5-yl)-3-({(2S)-2-[2,5-dioxo-1-(2-thiophenylmethyl)-1,2,3,5-tetrahydro-4H-1,4-benzodiazepin-4-yl]hexanoyl}amino)propanoic acid]: 1500 nM.
For the compound `CCCC[C@@H](C(=O)N[C@@H](CC(=O)O)c1ccc2c(c1)OCO2)N1CCN(Cc2cccs2)C1=O` [(3S)-3-(1,3-benzodioxol-5-yl)-3-({(2S)-2-[2-oxo-3-(2-thienylmethyl)-1-imidazolidinyl]hexanoyl}amino)propanoic acid], where the note is “Table 2”, the inhibition at 100 µM is 100% and the IC50 was 150 nM.
With `CCCC[C@@H](C(=O)N[C@@H](CC(=O)O)c1ccc2c(c1)OCO2)n1cccc(C(=O)c2ccccc2)c1=O` [(3S)-3-(1,3-benzodioxol-5-yl)-3-({(2S)-2-[2-oxo-3-(phenylcarbonyl)-1(2H)-pyridinyl]hexanoyl}amino)propanoic acid], the IC50 (Table 3) is 550 nM.
Consider `CCCC[C@@H](C(=O)N[C@@H](CC(=O)O)c1ccc2c(c1)OCO2)n1cccc(Cc2ccccc2)c1=O` [(3S)-3-(1,3-benzodioxol-5-yl)-3-({(2S)-2-[2-oxo-3-(phenylmethyl)-1(2H)-pyridinyl]hexanoyl}amino)propanoic acid], for which the half-maximal inhibitory concentration (IC50) (Table 3) was 4 nM.
Still for that read-out and setting: next, `CCCC[C@@H](C(=O)N[C@@H](CC(=O)O)c1ccc2c(c1)OCO2)N1CC(=O)N(Cc2cccs2)[C@@H](Cc2ccccc2)C1=O` [(3S)-3-(1,3-benzodioxol-5-yl)-3-({(2S)-2-[(3S)-2,5-dioxo-3-(phenylmethyl)-4-(2-thiophenylmethyl)tetrahydro-1(2H)-pyrazinyl]hexanoyl}amino)propanoic acid]: 6000 nM.
On to `CCCCC(C(=O)N[C@@H](CC(=O)O)c1ccc2c(c1)OCO2)n1cccc(Cc2ccccc2)c1=O` (stereo partly drawn) [(3S)-3-(1,3-benzodioxol-5-yl)-3-{[2-(3-benzyl-2-oxopyridin-1(2H)-yl)hexanoyl]amino}propanoic acid], for which the half-maximal inhibitory concentration (IC50) (Table 4) was 30 nM.
The same measure, in the same setting: next, `CCCC[C@H](C(=O)N[C@@H](CC(=O)O)c1ccc2c(c1)OCO2)n1cc(C)c(O)c(Cc2ccccc2)c1=O` [(3S)-3-(1,3-benzodioxol-5-yl)-3-{[(2R)-2-(3-benzyl-4-hydroxy-5-methyl-2-oxopyridin-1(2H)-yl)hexanoyl]amino}propanoic acid]: 2000 nM.
The same measure, in the same setting: the figure for `CCCC[C@@H](C(=O)N[C@@H](CC(=O)O)c1ccc2c(c1)OCO2)n1cc(C)c(O)c(Cc2ccccc2)c1=O` [(3S)-3-(1,3-benzodioxol-5-yl)-3-{[(2S)-2-(3-benzyl-4-hydroxy-5-methyl-2-oxopyridin-1(2H)-yl)hexanoyl]amino}propanoic acid] is 200 nM.
On the same count and under the same terms, the figure for `CCCCC(C(=O)N[C@@H](CC(=O)O)c1ccc2ccn(C)c2c1)n1cc(C)cc(Cc2ccccc2)c1=O` (stereo partly drawn) [(3S)-3-(1-methyl-1H-indol-6-yl)-3-({2-[5-methyl-2-oxo-3-(phenylmethyl)-1(2H)-pyridinyl]hexanoyl}amino)propanoic acid] is 10 nM; for `CCCCC(C(=O)N[C@@H](CC(=O)O)c1ccc2c(c1)CCC2)n1cc(C)cc(Cc2ccccc2)c1=O` (stereo partly drawn) [(3S)-3-(2,3-dihydro-1H-inden-5-yl)-3-({2-[5-methyl-2-oxo-3-(phenylmethyl)-1(2H)-pyridinyl]hexanoyl}amino)propanoic acid] it is 63 nM.
